According to the RepoRT retention time repository (doi:10.1016/j.foodchem.2015.11.070):

Experiment: Thermo Scientific Hypersil GOLD aQ, 100 × 2.1 mm, 1.9 µm, 30 °C, 0.3 mL/min, estimated dead time 0.73 min; A: water + 0.01% formic acid + 4 mM ammonium formate; B: methanol + 0.01% formic acid + 4 mM ammonium formate; gradient (min/%B) 0/5 1/5 8/100 12/100
Conditions: stereoisomer not certain

Row | SMILES | LC retention time
1 | Cc1ccc(C(C)NC(=O)C(NC(=O)OC(C)C)C(C)C)cc1 (stereo not given) | 9.73 min
2 | CSc1nnc(C(C)(C)C)c(=O)n1N | 8.41 min
3 | CNC(=O)ON=CC(C)(C)S(C)=O (stereo not given) | 3.06 min
4 | COC(=O)C(C)N(C(=O)Cc1ccccc1)c1c(C)cccc1C (stereo not given) | 10.2 min
5 | CC(C)N(Cc1ccccc1)C(=O)C(C)(C)C | 9.96 min
6 | COc1cc(OC)nc(NC(=O)NS(=O)(=O)c2ncccc2C(=O)N(C)C)n1 | 8.01 min
7 | CNC(=O)Oc1cccc2c1OC(C)(C)C2 | 8.41 min
8 | CC(C)(C)c1ccc(CCOc2ncnc3ccccc23)cc1 | 11.8 min
9 | CCCCc1c(C)nc(NCC)nc1OS(=O)(=O)N(C)C | 9.87 min
10 | CCOP(=S)(OCC)Oc1ccc(=O)n(-c2ccccc2)n1 | 9.71 min
11 | CCOC(=O)NCCOc1ccc(Oc2ccccc2)cc1 | 9.38 min
12 | COC(=O)c1sccc1S(=O)(=O)NC(=O)Nc1nc(C)nc(OC)n1 | 8.32 min
13 | CCSCCSP(=O)(OC)OC | 8.74 min
14 | CCC(C)Nc1c([N+](=O)[O-])cc(C(C)(C)C)cc1[N+](=O)[O-] (stereo not given) | 9.23 min
15 | CNC(=O)Oc1cccc2c1OC(C)(C)O2 | 8.4 min
16 | CCNc1nc(NC(C)(C)C)nc(OC)n1 | 8.88 min
17 | CCNC(=O)NC(=O)C(C#N)=NOC | 8.63 min
18 | CC1(C)C(C(=O)OC(C#N)c2cccc(Oc3ccccc3)c2)C1(C)C (stereo not given) | 11 min
19 | CC(C)c1cc(Oc2ccccc2)cc(C(C)C)c1NC(=S)NC(C)(C)C | 11 min
20 | CCS(=O)(=O)CCSP(=O)(OC)OC | 6.13 min
21 | CNC(=O)ON=C(SC)C(=O)N(C)C | 5.75 min
22 | CNC(=O)Oc1cc(C)c(SC)c(C)c1 | 8.76 min
23 | Cc1cc(C2CC2)nc(Nc2ccccc2)n1 | 10.3 min
24 | COc1cc2c(c3oc(=O)c4c(c13)CCC4=O)C1CCOC1O2 (stereo not given) | 8.26 min
25 | Cc1cc(C)nc(Nc2ccccc2)n1 | 9.6 min

Row | SMILES | LC retention time
26 | CC1=CC2OC3C(O)CC(C)(C34CO4)C2(CO)C(O)C1=O (stereo not given) | 9.63 min
27 | COC(=O)Nc1cccc(OC(=O)Nc2cccc(C)c2)c1 | 9.23 min
28 | COP(N)(=O)SC (stereo not given) | 1.58 min
29 | COc1nn(CSP(=S)(OC)OC)c(=O)s1 | 9.26 min
30 | CC1(c2ccc(Oc3ccccc3)cc2)OC(=O)N(Nc2ccccc2)C1=O (stereo not given) | 10.2 min
31 | CNC(=O)ON=C(CSC)C(C)(C)C | 8.21 min
32 | CCSC(=O)N(CC)C1CCCCC1 | 10.6 min
33 | CCOc1ccc(C(C)(C)COCc2cccc(Oc3ccccc3)c2)cc1 | 11.7 min
34 | CSC(C)=NOC(=O)N(C)SN(C)C(=O)ON=C(C)SC | 8.88 min
35 | COCC(=O)N(c1c(C)cccc1C)C(C)C(=O)OC (stereo not given) | 9.04 min
36 | CCNc1nc(NCC)nc(SC)n1 | 8.62 min
37 | CCS(=O)(=O)c1cccnc1S(=O)(=O)NC(=O)Nc1nc(OC)cc(OC)n1 | 8.71 min
38 | CCCOC(=O)NCCCN(C)C | 5.17 min
39 | C=CCC1=C(C)C(OC(=O)C2C(C=C(C)C)C2(C)C)CC1=O (stereo not given) | 10.8 min
40 | CON(C(=O)c1cc(C)oc1C)C1CCCCC1 | 10.2 min
41 | CCOP(=S)(OCC)SCn1nnc2ccccc2c1=O | 9.92 min
42 | CSc1nc(NC(C)C)nc(NC(C)C)n1 | 9.65 min
43 | CC#Cc1cc(C)nc(Nc2ccccc2)n1 | 10 min
44 | CCS(=O)Cc1ccccc1OC(=O)NC (stereo not given) | 7.09 min
45 | CCOP(=O)(NC(C)C)Oc1ccc(S(C)(=O)=O)c(C)c1 (stereo not given) | 8.51 min
46 | CCOc1ccc2c(c1)C(C)=CC(C)(C)N2 | 9.07 min
47 | CNC(=O)Oc1cccc2c1OC(C)(C)C2O (stereo not given) | 7.11 min
48 | CCC(C)C1OC2(C=CC1C)CC1CC(CC=C(C)C(OC3CC(OC)C(OC4CC(OC)C(NC)C(C)O4)C(C)O3)C(C)C=CC=C3COC4C(O)C(C)=CC(C(=O)O1)C34O)O2 (stereo not given) | 11.9 min
49 | CNC(=O)Oc1ccccc1OC(C)C | 8.36 min
50 | CNC(=O)Oc1cc(C)c(S(C)(=O)=O)c(C)c1 | 6.96 min
